Test: Plasma pharmacokinetics
Assay type: in vivo, human
Settings: for AUC / Cmax / Tmax: human, plasma, oral, 140 mg, Steady state (cycle 1, day 8), 140 mg once daily; for AUC: AUC0–tau; for AUC / Cmax: mean ± SD; for Cmax: C max; for Tmax: t max, median (range)

## CNC(=O)n1ccc2cc(Oc3ccnc(NC(=O)c4ccc(C5CCN(CCO)CC5)cc4)c3)c(OCCOC)cc21 [Tasurgratinib]
After the first dose and at a steady state, each tumor type
  time to C max, median values: 3 to 4 h
Cholangiocarcinoma N = 6
  AUC: 1110 ± 660 ng·h/mL
  Cmax: 95.1 ± 66.2 ng/mL
  Tmax: 3.95 h
Gastric cancer N = 10
  AUC: 4270 ± 3730 ng·h/mL
  Cmax: 294 ± 186 ng/mL
  Tmax: 3.98 h
Total N = 16
  AUC: 3080 ± 3320 ng·h/mL
  Cmax: 219 ± 179 ng/mL
  Tmax: 3.97 h

— article PMC11711049 (Cancer Science, 2024)
